Read-outs that look alike come from different tables or passages of the source.
Columns and labels:
Ustilago nuda nuda = assay: Treatment of barley seeds in open field tests against Ustilago nuda nuda; assay type: in vivo; conditions: winter barley; 100 g/100 kg seeds; eight months
Procedure: (§1) Treatment of wheat and barley seeds in open field tests against Ustilago nuda
(§2) Winter wheat seeds which had been infested with the smut cause Ustilago nuda tritici and winter barley seeds infested with Ustilago nuda nuda were treated with the agents listed in the table below and were seeded at seeding time in open fields. As a control untreated seeds were likewise included in the seed. After eight months the affected heads were counted for each test group and their proportion was calculated in order to find the fungicidal activity by the following formula: [formula]
(§3) The active compounds were employed in the form of 20% concentration powder compositions.

Pythium ultimum = assay: Threshold concentration test for use of the compounds against Pythium ultimum (infested soil, garden peas); assay type: in vivo; parameters: key to root evaluation (1-4): 4: white roots without fungous necrosis; 3: white roots, minor fungous necrosis; 2: brown roots, already more pronounced fungous necrosis; 1: heavy fungous necrosis, roots rotted; conditions: for root evaluation (1-4): 3 weeks; for number of sound peas: 20 grains per dish, 3 weeks at 20-24° C.
Outline: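 Pulverulent agents at 20% concentration mixed evenly into soil heavily infested with Pythium ultimum, then garden peas ('Wunder von Kelvedon', 20 per dish) sown at once. After three weeks at 20–24 °C in a hothouse, sound peas counted and roots scored on a 1–4 scale.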

Ustilago nuda tritici = assay: Treatment of wheat seeds in open field tests against Ustilago nuda tritici; assay type: in vivo; conditions: winter wheat; 100 g/100 kg seeds; eight months
Procedure: as §1, §2, §3

Alternaria solani = assay: Inhibition of fungus in a nutrient solution: Alternaria solani; assay type: cell-based; conditions: 6 days at 21-23° C.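 Note: 0 means no fungus growth and higher grades mean more surface covered.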
Botrytis cinerea = assay: Inhibition of fungus in a nutrient solution: Botrytis cinerea; assay type: cell-based; conditions: 6 days at 21-23° C.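 Note: 0 means no fungus growth and higher grades mean more surface covered.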
Tilletia caries = assay: Seed treatment in open field tests regarding infestation by Tilletia caries (oats); assay type: in vivo
Fusarium nivale = assay: Treatment of rye seeds against Fusarium nivale; assay type: in vivo; conditions: 100 g/100 kg; about 4 weeks
Helminthosporium gram = conditions: about 5 weeks
Procedure: Treatment of barley seeds infested with Helminthosporium gram
After emergence, the plants were subjected to illumination for 12 hours per day. After about 5 weeks the infested plants were counted and the total number of plants for each test were also counted. The active agents tested were used as pulverulent compositions.

Venturia inaequalis = assay: Prophylactic leaf treatment of apples in open field test against Venturia inaequalis; assay type: in vivo; conditions: 3 weeks
Penicillium digitatum = assay: Inhibition of fungus in a nutrient solution: Penicillium digitatum; assay type: cell-based; conditions: 6 days at 21-23° C.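 Note: 0 means no fungus growth and higher grades mean more surface covered.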
[1] = tested on: Helminthosporium gramineum; assay: Seed treatment in open field tests for infestation by Helminthosporium gramineum (barley); assay type: in vivo
Procedure: Seed treatment in open field tests for infestation by Helminthosporium gramineum
The active agents were used in the form of pulverulent compositions. After about 8 months in case of winter barley and after about 3 months in case of summer barley the infested plants were counted and the activity was calculated by the formula [formula]

Ustilago avenae = assay: Oat seed treatment for Ustilago avenae; assay type: in vivo; conditions: 100 g active agent/100 kg; 10 weeks
Fusarium avenaceum [2] = assay: Inhibition of fungus in a nutrient solution: Fusarium avenaceum; assay type: cell-based; conditions: 6 days at 21-23° C.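 Note: 0 means no fungus growth and higher grades mean more surface covered.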
Outline: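 Grape juice/water (1:1) nutrient solution mixed with powdered test agent, then inoculated with conidia. Surface fungal growth scored on a 0–5 scale after 6 days at 21–23 °C.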

Piricularia oryzae = assay type: in vivo; conditions: 5 days
Fusarium avenaceum [3] = assay: Threshold concentration test in case of Fusarium avenaceum (infested soil, garden peas); assay type: in vivo; conditions: for number of sound peas: 20 grains per dish, 18 days at 20-24° C.; for root evaluation (1-4): 18 days
Outline: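 Soil heavily infested with Fusarium avenaceum was mixed uniformly with a 20% powder formulation of active agent, then sown immediately with 20 garden pea seeds ('Wunder von Kelvedon') per dish. After 18 days in a greenhouse at 20° to 24° C., sound plants were counted and roots scored on a 1–4 scale.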

[4] = concentration of active agent 0.005 (in gram)
[5] = concentration of active agent 0.025 (in gram)
[6] = summer barley, 50 g active agent/100 kg barley, about 3 months
[7] = summer barley, 100 g active agent/100 kg barley, about 3 months
[8] = winter barley, 75 g active agent/100 kg barley, about 8 months
[9] = winter barley, 100 g active agent/100 kg barley, about 8 months
[10] = concentration of active agent 0.1 (percentages)

Compound | % activity (Ustilago nuda nuda) [%] | root evaluation (1-4) (Pythium ultimum; 20 mg/l soil) | number of sound peas (Pythium ultimum; 20 mg/l soil) | root evaluation (1-4) (Pythium ultimum; 40 mg/l soil) | number of sound peas (Pythium ultimum; 40 mg/l soil) | root evaluation (1-4) (Pythium ultimum; 80 mg/l soil) | number of sound peas (Pythium ultimum; 80 mg/l soil) | % activity (Ustilago nuda tritici) [%] | fungus development on the surface of the nutrient solution (0-5) (Alternaria solani; 0.002%) | fungus development on the surface of the nutrient solution (0-5) (Alternaria solani; 0.004%) | fungus development on the surface of the nutrient solution (0-5) (Botrytis cinerea; 0.002%) | fungus development on the surface of the nutrient solution (0-5) (Botrytis cinerea; 0.004%) | % activity (Helminthosporium gram; 20 g active agent per 100 kg) [%] | % activity (Helminthosporium gram; 50 g active agent per 100 kg) [%] | % activity (Venturia inaequalis; [4]) [%] | % activity (Venturia inaequalis; [5]) [%] | fungus development on the surface of the nutrient solution (0-5) (Penicillium digitatum; 0.002%) | fungus development on the surface of the nutrient solution (0-5) (Penicillium digitatum; 0.004%) | % activity [1, 6] [%] | % activity [1, 7] [%] | further results
CC(C)CS(=O)(=O)c1nnc(C(N)=O)s1 [5-isobutylsulfonyl-1,3,4-thiadiazole-2-carboxamide] | 79 | 1 | 15 | 4 | 18 | 4 | 18 | 75 | 0 | 0 | 2 (5 to 10% of the surface covered by the fungus turf) | 1 | 60 | 87 | 87 | 95 | 1 | 0 | 99.5 | 100 | % activity (Tilletia caries; summer oats, 50 g active agent/100 kg, about 4 months): 99%; % activity (Fusarium nivale): 99.2%; % activity ([1]; winter barley, 50 g active agent/100 kg barley, about 8 months): 100%; % activity [1, 8]: 100%; % activity [1, 9]: 100%; % activity (Ustilago avenae): 87%; fungus development on the surface of the nutrient solution (0-5) (Fusarium avenaceum [2]; 0.004%): 0; % activity (Piricularia oryzae; concentration of active agent 0.02 (percentages)): 65%; % activity (Piricularia oryzae; [10]): 90%
CC(C)S(=O)(=O)c1nnc(C#N)s1 [5-isopropylsulfonyl-1,3,4-thiadiazole-2-carbonitrile] | 93 | 2 | 18 | 4 | 20 | 4 | 19 | 70 | 0 | 0 | 1 | 0 | 86 | 97 | 97 | 100 | 0 | 0 | 99.8 | 100 | number of sound peas (Fusarium avenaceum [3]; 25 mg/l soil): 20; root evaluation (1-4) (Fusarium avenaceum [3]; 25 mg/l soil): 4; number of sound peas (Fusarium avenaceum [3]; 50 mg/l soil): 20; root evaluation (1-4) (Fusarium avenaceum [3]; 50 mg/l soil): 4; number of sound peas (Fusarium avenaceum [3]; 100 mg/l soil): 19; root evaluation (1-4) (Fusarium avenaceum [3]; 100 mg/l soil): 4; % activity (Tilletia caries; winter oats, 100 g active agent/100 kg, about 9 months): 100%; % activity ([1]; summer barley, 25 g active agent/100 kg barley, about 3 months): 100%; % activity [1, 8]: 99%; % activity [1, 9]: 100%; % activity (Ustilago avenae): 97%; fungus development on the surface of the nutrient solution (0-5) (Fusarium avenaceum [2]; 0.002%): 0; fungus development on the surface of the nutrient solution (0-5) (Fusarium avenaceum [2]; 0.004%): 0; % activity (Piricularia oryzae; [10]): 94%
